Test results published in patent publication US6908920B2, “Pyrimidine derivatives” (AstraZeneca AB, priority 2000, dated 2005).

Target: T1, CDK2/Cyclin E (Homo sapiens, UniProt P24941)
T1 construct: made in house; host or cells: Sf21 (Spodoptera frugiperda) insect cells, baculovirus co-infection, for CDK2/cyclin E. E. coli BL21 (DE3) pLysS for the GST-Rb substrate
Assay: in vitro kinase assay, Scintillation Proximity Assay, incorporation of [γ-33-P]-ATP into GST-Rb
Format: biochemical
Settings: in-vitro SPA kinase assay, GST-Rb substrate, read-out: CDK2 inhibitory activity IC50
Protocol: The compounds were tested in an in vitro kinase assay in 96 well format using Scintillation Proximity Assay (SPA—obtained from Amersham) for measuring incorporation of [γ-33-P]-Adenosine Triphosphate into a test substrate (GST-Retinoblastoma protein; GST-Rb). In each well was placed the compound to be tested (diluted in DMSO and water to correct concentrations) and in control wells either roscovitine as an inhibitor control or DMSO as a positive control. […]
The plates were sealed with Topseal-S plate sealers, left for two hours then spun at 2500 rpm, 1124×g., for 5 minutes. The plates were read on a Topcount for 30 seconds per well. […]
E. coli paste was resuspended in 10 ml/g of NETN buffer (50 mM Tris pH 7.5, 120 mM NaCl, 1 mM EDTA, 0.5% v/v NP-40, 1 mM PMSF, 1 ug/mnl leupeptin, 1 ug/ml aprotinin and 1 ug/ml pepstatin) and sonicated for 2×45 seconds per 100 ml homogenate. […] The final product was analysed by Sodium Dodeca Sulfate (SDS) PAGE (Polyacrylamide gel) using 8-16% Tris-Glycine gels (Novex, San Diego, USA).
The open reading frames of CDK2 and Cyclin E were isolated by reverse transcriptase-PCR using HeLa cell and activated T cell mRNA as a template and cloned into the insect expression vector pVL1393 (obtained from Invitrogen 1995 catalogue number: V1392-20). […]

IC50: 148 nM
SMILES: CC(C)NCCCNS(=O)(=O)c1ccc(Nc2ncc(C#N)c(N3CCOCC3)n2)cc1 [Example 1, 5-Cyano-4-morpholino-2-{4-[N-(3-isopropylaminopropyl)sulphamoyl]anilino}pyrimidine]
